# Data: patent US5093331A, “Labdane derivatives, a process for their preparation, and their use as medicaments” (Hoechst Aktiengesellschaft, priority 1987, dated 1992)
# Structures can show the parent of a compound that is named as a salt.
# Tested on: Blood pressure in cats
# Experiment: Test for an antihypertensive effect: blood pressure in cats
# Format: in vivo
# Conditions: 0.1 mg/kg i.v., anesthetized cats, formula Ia
# Method: Test for an antihypertensive effect
# Cats of both sexes and weighing 3 to 4 kg are anesthetized with ether and maintained under chloralose anesthesia (70 mg/kg i.v.). Cannulas are placed in the femoral artery and femoral vein to record the blood pressure and to administer the medicament, respectively. The blood pressure in the femoral artery is recorded via a Statham P 23 Db pressure transducer on a Nihon-Kohden pen recorder for physiological purposes. The compound to be tested is dissolved in distilled water and administered intravenously. The fall in blood pressure and the duration of the effect lowering blood pressure are noted.
Structure (SMILES),duration (of fall of B.P.) [min],fall of B.P. [mm Hg]
"C=C[C@@]1(C)CC(=O)[C@]2(O)[C@@]3(C)[C@@H](O)CCC(C)(C)[C@@H]3[C@H](O)[C@H](OC(=O)COC(=O)CN)[C@@]2(C)O1 [1 NH2, 8,13-Epoxy-7β-(2-glycinyloxyacetoxy)-1α,6β,9α-trihydroxylabd-14-en-11-one monohydrochloride]",120,20
C=C[C@@]1(C)CC(=O)[C@]2(O)[C@@]3(C)[C@@H](O)CCC(C)(C)[C@@H]3[C@H](O)[C@H](OC(=O)COC(=O)CN3CCN(C)CC3)[C@@]2(C)O1 [drawing 61],40,20
C=C[C@@]1(C)CC(=O)[C@]2(O)[C@@]3(C)[C@@H](O)CCC(C)(C)[C@@H]3[C@H](O)[C@H](OC(=O)COC(=O)CN3CCCCC3)[C@@]2(C)O1,40,25
C=C[C@@]1(C)CC(=O)[C@]2(O)[C@@]3(C)[C@@H](O)CCC(C)(C)[C@@H]3[C@H](O)[C@H](OC(=O)COC(=O)CN3CCOCC3)[C@@]2(C)O1 [drawing 62],60,30
C=C[C@@]1(C)CC(=O)[C@]2(O)[C@@]3(C)[C@@H](O)CCC(C)(C)[C@@H]3[C@H](O)[C@H](OC(=O)COC(=O)CN(C(C)C)C(C)C)[C@@]2(C)O1 [1 NH[CH(CH3)2]2],125,25

# Same assay, conditions: 0.3 mg/kg i.v., anesthetized cats, formula Ia
Structure (SMILES),duration (of fall of B.P.) [min],fall of B.P. [mm Hg]
C=C[C@@]1(C)CC(=O)[C@]2(O)[C@@]3(C)[C@@H](O)CCC(C)(C)[C@@H]3[C@H](O)[C@H](OC(=O)COC(=O)CN3CCN(C(=O)OCC)CC3)[C@@]2(C)O1 [drawing 63],30,35
C=C[C@@]1(C)CC(=O)[C@]2(O)[C@@]3(C)[C@@H](O)CCC(C)(C)[C@@H]3[C@H](O)[C@H](OC(=O)COC(=O)CNC(=O)OC(C)(C)C)[C@@]2(C)O1 [1 NHBoC],35,30

# Same assay, conditions: 1 mg/kg i.v., anesthetized cats, formula Ia
Structure (SMILES),duration (of fall of B.P.) [min],fall of B.P. [mm Hg]
C=C[C@@]1(C)CC(=O)[C@]2(O)[C@@]3(C)[C@@H](O)CCC(C)(C)[C@@H]3[C@H](O)[C@H](OC(=O)COC(=O)CNc3cc(OC)c(OC)c(OC)c3)[C@@]2(C)O1 [drawing 64],60,80
C=C[C@@]1(C)CC(=O)[C@]2(O)[C@@]3(C)[C@@H](O)CCC(C)(C)[C@@H]3[C@H](O)[C@H](OC(=O)COC(=O)CN3CCC(c4ccccc4)CC3)[C@@]2(C)O1 [drawing 60],45,60

# Tested on: Guineapig atrium
# Experiment: Positive inotropic effect, isolated electrically stimulated guineapig atrium
# Format: cell-based
# Conditions: Cavia porcellus, Table III, formula Ia, 32° C., contractility recorded 7 to 10 minutes
# Method: Positive inotropic effect
# The following method was used:
# Guineapigs of both sexes and weighing 400 g are sacrificed, and the heart is removed and placed in Ringer's solution at room temperature. Both the left and the right atria are then isolated and fixed in an organ holder, and the preparation is placed in a bath containing Ringer's solution and maintained at a temperature of 32° C. A mixture of 95% O2 and 5% CO2 is then bubbled through the organ bath and the atrium is electrically stimulated. The compound to be tested is dissolved in water to give a solution of known concentration and is added to the bath. The contractility of the atrium is recorded for 7 to 10 minutes on a Nihon Kohden 4-channel pen recorder with an isometric strain gage. The activity is expressed on the basis of the resulting data as the EC50.
# The results obtained in this model are indicated for representative compounds of the invention in Tables III and IV which follow: […]
row,Structure (SMILES),EC50 [µg/mL]
1,C=C[C@@]1(C)CC(=O)[C@]2(O)[C@@]3(C)[C@@H](O)CCC(C)(C)[C@@H]3[C@H](O)[C@H](OC(=O)COC(=O)CN3CCOCC3)[C@@]2(C)O1 [drawing 51],1.42
2,C=C[C@@]1(C)CC(=O)[C@]2(O)[C@@]3(C)[C@@H](O)CCC(C)(C)[C@@H]3[C@H](O)[C@H](OC(=O)COC(=O)CN3CCC(c4ccccc4)CC3)[C@@]2(C)O1 [drawing 49],0.18
3,"C=C[C@@]1(C)CC(=O)[C@]2(O)[C@@]3(C)[C@@H](O)CCC(C)(C)[C@@H]3[C@H](O)[C@H](OC(=O)COC(=O)CN(CC)CC)[C@@]2(C)O1 [1 N(C2 H5)2, 8,13-Epoxy-7β-(2-N,N-diethylglycinyloxyacetoxy)-1α,6β,9α-trihydroxylabd-14-en-11-one hydrochloride]",0.03
4,"C=C[C@@]1(C)CC(=O)[C@]2(O)[C@@]3(C)[C@@H](O)CCC(C)(C)[C@@H]3[C@H](O)[C@H](OC(=O)COC(=O)CN)[C@@]2(C)O1 [1 NH2, 8,13-Epoxy-7β-(2-glycinyloxyacetoxy)-1α,6β,9α-trihydroxylabd-14-en-11-one monohydrochloride]",0.1
5,C=C[C@@]1(C)CC(=O)[C@]2(O)[C@@]3(C)[C@@H](O)CCC(C)(C)[C@@H]3[C@H](O)[C@H](OC(=O)COC(=O)CNc3cc(OC)c(OC)c(OC)c3)[C@@]2(C)O1 [drawing 48],0.545
6,"C=C[C@@]1(C)CC(=O)[C@]2(O)[C@@]3(C)[C@@H](O)CCC(C)(C)[C@@H]3[C@H](O)[C@H](OC(=O)COC(=O)CN(C(C)C)C(C)C)[C@@]2(C)O1 [1 N[CH(CH3)2]2, 8,13-Epoxy-7β-(2-diisopropylaminoacetoxyacetoxy)-1α, 6β,9α-trihydroxylabd-14-en-11-one hydrochloride sesquihydrate]",1
7,C=C[C@@]1(C)CC(=O)[C@]2(O)[C@@]3(C)[C@@H](O)CCC(C)(C)[C@@H]3[C@H](O)[C@H](OC(=O)COC(=O)CN3CCN(C)CC3)[C@@]2(C)O1 [drawing 50],0.1
8,C=C[C@@]1(C)CC(=O)[C@]2(O)[C@@]3(C)[C@@H](O)CCC(C)(C)[C@@H]3[C@H](O)[C@H](OC(=O)COC(=O)CN3CCN(C(=O)OCC)CC3)[C@@]2(C)O1 [drawing 52],> 1

# Same assay, conditions: Cavia porcellus, Table IV, formula Ib, 32° C., contractility recorded 7 to 10 minutes
row,Structure (SMILES),EC50 [µg/mL]
1,C=C[C@@]1(C)CC(=O)[C@]2(O)[C@@]3(C)[C@@H](O)CCC(C)(C)[C@@H]3[C@H](OC(=O)COC(=O)CN3CCN(C)CC3)[C@H](OC(C)=O)[C@@]2(C)O1,0.006
2,"C=C[C@@]1(C)CC(=O)[C@]2(O)[C@@]3(C)[C@@H](O)CCC(C)(C)[C@@H]3[C@H](OC(=O)COC(=O)CN(C(C)C)C(C)C)[C@H](OC(C)=O)[C@@]2(C)O1 [1 OAc N[CH(CH3)2]2, 7β-Acetoxy-6β-(2-N,N-diisopropylaminoacetoxyacetoxy)-8,13-epoxy-1α,9α-dihydroxylabd-14-en-11-one hydrochloride monohydrate]",0.14
3,"C=C[C@@]1(C)CC(=O)[C@]2(O)[C@@]3(C)[C@@H](O)CCC(C)(C)[C@@H]3[C@H](OC(=O)COC(=O)CN)[C@H](OC(C)=O)[C@@]2(C)O1 [1 OAc NH2, 7β-acetoxy-8,13-epoxy-6β-(2-glycinyloxyacetoxy)-1α,9α-dihydroxylabd-14-en-11-one hydrochloride]",0.008
4,"C=C[C@@]1(C)CC(=O)[C@]2(O)[C@@]3(C)[C@@H](O)CCC(C)(C)[C@@H]3[C@H](OC(=O)COC(=O)CN)[C@H](O)[C@@]2(C)O1 [1 OH NH2, 8,13-epoxy-6β-(2-glycinyloxyacetoxy)-1α,7β, 9α-trihydroxylabd-14-en-11-one hydrochloride]",> 10
5,"C=C[C@@]1(C)CC(=O)[C@]2(O)[C@@]3(C)[C@@H](O)CCC(C)(C)[C@@H]3[C@H](OC(=O)COC(=O)CN(CC)CC)[C@H](OC(C)=O)[C@@]2(C)O1 [1 OAc N(C2 H5)2, 7β-Acetoxy-6β-(2-N,N-diethylaminoacetoxyacetoxy)-8,13-epoxy-1α,9α-dihydroxylabd-14-en-11-one hydrochloride sesquihydrate]",0.03
6,C=C[C@@]1(C)CC(=O)[C@]2(O)[C@@]3(C)[C@@H](O)CCC(C)(C)[C@@H]3[C@H](OC(=O)COC(=O)CCN(C)C)[C@H](OC(C)=O)[C@@]2(C)O1 [2 OAc N(CH3)2],0.058
7,C=C[C@@]1(C)CC(=O)[C@]2(O)[C@@]3(C)[C@@H](O)CCC(C)(C)[C@@H]3[C@H](OC(=O)COC(=O)CCN3CCCCC3)[C@H](OC(C)=O)[C@@]2(C)O1,0.086
8,C=C[C@@]1(C)CC(=O)[C@]2(O)[C@@]3(C)[C@@H](O)CCC(C)(C)[C@@H]3[C@H](OC(=O)COC(=O)CN3CCCCC3)[C@H](OC(C)=O)[C@@]2(C)O1,0.04
9,C=C[C@@]1(C)CC(=O)[C@]2(O)[C@@]3(C)[C@@H](O)CCC(C)(C)[C@@H]3[C@H](OC(=O)COC(=O)CCN)[C@H](OC(C)=O)[C@@]2(C)O1 [2 OAc NH2],0.02
10,C=C[C@@]1(C)CC(=O)[C@]2(O)[C@@]3(C)[C@@H](O)CCC(C)(C)[C@@H]3[C@H](OC(=O)COC(=O)CN3CCOCC3)[C@H](OC(C)=O)[C@@]2(C)O1,0.072
